One assay has as its target T1, Nan–Iav TRPV channel (Drosophila melanogaster, UniProt Q9VUD5+Q9W3W0).
T1 construct: iav cDNA in pCR4-TOPO, synthesized nan cDNA in pcDNA3.1; cRNAs co-injected in Xenopus oocytes; heteromeric channel
T1 sequence (Q9VUD5 1-833): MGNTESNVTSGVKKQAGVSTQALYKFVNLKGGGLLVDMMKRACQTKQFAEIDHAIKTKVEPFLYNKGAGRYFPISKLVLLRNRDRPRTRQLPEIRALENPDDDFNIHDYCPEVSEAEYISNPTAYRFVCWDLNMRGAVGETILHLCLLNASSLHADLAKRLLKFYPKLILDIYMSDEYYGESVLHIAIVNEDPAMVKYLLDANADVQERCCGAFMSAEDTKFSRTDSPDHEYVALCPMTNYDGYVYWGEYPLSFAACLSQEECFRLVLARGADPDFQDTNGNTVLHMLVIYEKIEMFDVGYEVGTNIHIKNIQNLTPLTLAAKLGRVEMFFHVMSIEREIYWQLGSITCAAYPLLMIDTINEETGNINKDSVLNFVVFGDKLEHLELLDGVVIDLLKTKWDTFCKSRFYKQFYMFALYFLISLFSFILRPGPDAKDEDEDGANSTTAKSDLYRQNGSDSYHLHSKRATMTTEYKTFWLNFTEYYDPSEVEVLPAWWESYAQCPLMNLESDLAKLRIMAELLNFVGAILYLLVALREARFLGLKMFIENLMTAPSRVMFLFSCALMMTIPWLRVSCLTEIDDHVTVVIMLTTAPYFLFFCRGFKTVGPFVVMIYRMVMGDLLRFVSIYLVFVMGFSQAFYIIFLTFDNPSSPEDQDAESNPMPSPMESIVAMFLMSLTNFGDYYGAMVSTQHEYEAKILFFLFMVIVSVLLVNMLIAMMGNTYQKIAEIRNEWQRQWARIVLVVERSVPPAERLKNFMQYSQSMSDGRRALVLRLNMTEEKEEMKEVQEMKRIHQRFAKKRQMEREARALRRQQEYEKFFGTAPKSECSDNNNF
T1 sequence (Q9W3W0 1-1123): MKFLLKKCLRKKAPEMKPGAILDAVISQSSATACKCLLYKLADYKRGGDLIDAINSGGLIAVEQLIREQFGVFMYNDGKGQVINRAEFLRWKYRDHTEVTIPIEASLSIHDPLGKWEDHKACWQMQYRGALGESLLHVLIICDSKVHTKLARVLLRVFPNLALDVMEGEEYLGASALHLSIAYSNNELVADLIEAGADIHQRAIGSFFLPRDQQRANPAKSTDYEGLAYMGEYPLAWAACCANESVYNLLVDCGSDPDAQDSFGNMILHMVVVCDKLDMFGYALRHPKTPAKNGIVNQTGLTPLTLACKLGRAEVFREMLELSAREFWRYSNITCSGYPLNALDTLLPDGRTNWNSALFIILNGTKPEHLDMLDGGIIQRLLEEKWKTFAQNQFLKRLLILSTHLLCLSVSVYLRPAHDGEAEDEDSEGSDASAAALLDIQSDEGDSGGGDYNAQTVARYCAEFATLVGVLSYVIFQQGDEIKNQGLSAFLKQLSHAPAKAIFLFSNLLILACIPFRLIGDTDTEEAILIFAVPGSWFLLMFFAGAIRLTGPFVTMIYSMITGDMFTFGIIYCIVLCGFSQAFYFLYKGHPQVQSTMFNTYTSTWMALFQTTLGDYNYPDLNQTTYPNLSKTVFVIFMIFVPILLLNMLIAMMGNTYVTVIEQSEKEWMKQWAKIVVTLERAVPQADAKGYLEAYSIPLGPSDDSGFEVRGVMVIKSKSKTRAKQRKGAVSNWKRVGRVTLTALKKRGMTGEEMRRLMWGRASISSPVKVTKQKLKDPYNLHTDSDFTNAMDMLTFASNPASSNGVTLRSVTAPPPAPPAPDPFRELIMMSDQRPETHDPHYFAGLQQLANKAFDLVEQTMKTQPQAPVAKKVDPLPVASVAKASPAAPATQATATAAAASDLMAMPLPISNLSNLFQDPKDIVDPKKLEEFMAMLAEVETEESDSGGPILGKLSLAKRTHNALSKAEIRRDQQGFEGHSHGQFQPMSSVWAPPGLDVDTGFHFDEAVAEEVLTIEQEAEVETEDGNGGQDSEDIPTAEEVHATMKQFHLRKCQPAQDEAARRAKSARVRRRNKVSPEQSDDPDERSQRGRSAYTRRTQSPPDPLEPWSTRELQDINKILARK
Put plainly: two-electrode voltage clamp, Xenopus oocytes, Hill fit. Type of assay: cell-based. As to conditions: read-out: K1/2.

The target of a further assay is T2, OSM-9–OCR-4 TRPV channel (Caenorhabditis elegans, UniProt G5EBV8+Q9N3Y9).
T2 construct: untagged cDNAs (osm-9 in pGEMHE, ocr-4 in pOX); cRNAs co-injected in Xenopus oocytes; heterotetramer, likely 2:2
T2 sequence (G5EBV8 1-937): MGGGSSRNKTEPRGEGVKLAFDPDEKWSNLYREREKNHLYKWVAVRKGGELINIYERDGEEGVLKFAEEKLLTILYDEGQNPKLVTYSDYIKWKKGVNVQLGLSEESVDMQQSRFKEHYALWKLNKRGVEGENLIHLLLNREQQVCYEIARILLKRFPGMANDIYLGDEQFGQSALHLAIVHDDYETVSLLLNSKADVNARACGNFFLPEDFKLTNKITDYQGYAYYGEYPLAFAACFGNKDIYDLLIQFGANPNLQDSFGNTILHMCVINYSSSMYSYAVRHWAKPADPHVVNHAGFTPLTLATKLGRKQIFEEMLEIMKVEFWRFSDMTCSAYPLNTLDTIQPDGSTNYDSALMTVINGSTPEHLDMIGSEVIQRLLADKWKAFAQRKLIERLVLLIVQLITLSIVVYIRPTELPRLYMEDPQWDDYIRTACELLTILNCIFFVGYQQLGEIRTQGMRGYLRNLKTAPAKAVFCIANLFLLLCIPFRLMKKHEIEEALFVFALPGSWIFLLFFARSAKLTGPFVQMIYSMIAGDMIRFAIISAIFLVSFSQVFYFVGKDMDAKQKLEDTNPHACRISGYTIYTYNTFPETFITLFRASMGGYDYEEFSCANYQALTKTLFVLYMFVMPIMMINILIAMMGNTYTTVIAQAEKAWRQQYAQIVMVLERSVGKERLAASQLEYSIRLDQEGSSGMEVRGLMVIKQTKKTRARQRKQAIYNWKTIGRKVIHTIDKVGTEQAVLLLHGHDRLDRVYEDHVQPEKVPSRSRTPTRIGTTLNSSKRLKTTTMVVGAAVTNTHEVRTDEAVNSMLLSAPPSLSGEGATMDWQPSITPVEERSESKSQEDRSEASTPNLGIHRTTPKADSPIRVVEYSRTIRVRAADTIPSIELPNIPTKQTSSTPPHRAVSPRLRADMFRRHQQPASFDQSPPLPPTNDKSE
T2 sequence (Q9N3Y9 1-756): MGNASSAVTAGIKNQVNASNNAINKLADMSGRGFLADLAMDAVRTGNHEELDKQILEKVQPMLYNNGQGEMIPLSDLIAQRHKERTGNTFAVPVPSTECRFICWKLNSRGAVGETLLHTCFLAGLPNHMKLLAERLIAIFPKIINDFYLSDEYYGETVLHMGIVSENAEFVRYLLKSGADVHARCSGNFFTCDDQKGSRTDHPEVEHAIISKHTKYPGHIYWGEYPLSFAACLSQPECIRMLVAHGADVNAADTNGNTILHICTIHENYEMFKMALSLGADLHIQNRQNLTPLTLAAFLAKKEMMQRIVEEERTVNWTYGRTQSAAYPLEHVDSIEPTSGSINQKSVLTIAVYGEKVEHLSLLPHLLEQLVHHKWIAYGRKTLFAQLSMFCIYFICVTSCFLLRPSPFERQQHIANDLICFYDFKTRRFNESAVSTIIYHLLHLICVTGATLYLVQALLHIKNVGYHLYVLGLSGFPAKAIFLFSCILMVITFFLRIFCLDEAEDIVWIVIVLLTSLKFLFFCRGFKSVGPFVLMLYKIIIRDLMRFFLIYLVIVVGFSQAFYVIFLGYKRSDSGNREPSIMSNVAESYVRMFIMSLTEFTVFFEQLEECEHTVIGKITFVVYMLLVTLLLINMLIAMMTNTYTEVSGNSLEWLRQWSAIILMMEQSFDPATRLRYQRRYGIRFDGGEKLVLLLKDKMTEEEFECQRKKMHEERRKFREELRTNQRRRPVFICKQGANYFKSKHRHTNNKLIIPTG
The description is as above. In kind it is cell-based. To be noted: read-out: K1/2.

Experimental findings from article PMC5064019, “Nicotinamide is an endogenous agonist for a C. elegans TRPV OSM-9 and OCR-4 channel” (Nature Communications, 2016) are described below.

Take `NC(=O)c1cccnc1` [nicotinamide]: the EC50 at Nan–Iav TRPV channel is 14.4 ± 1 µM; on OSM-9–OCR-4 TRPV channel it was 63.3 ± 13.2 µM.
